Test results taken from ChEMBL document CHEMBL1201862, “PubChem BioAssay data set” (2004).
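Interpolation was linear, between the two tested concentrations surrounding the appropriate level; five concentrations were tested over 48 hours in 96-well plates. Here, GI50 denotes the concentration required for 50% inhibition of growth.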 Active and inactive are the calls of the source. Rule as the data show it: active = GI50 up to about 1.1 µM and inactive = higher.

What was measured:
Test in all cases: NCI anticancer screen, dose series, 48 h
NCI-H226 = tested on: NCI-H226
HOP-62 = tested on: HOP-62
SNB-78 = tested on: SNB-78
SW-620 = tested on: SW-620
M19-MEL = tested on: M19-MEL
DU-145 = tested on: DU-145
NCI-H460 = tested on: NCI-H460
OVCAR-8 = tested on: OVCAR-8
OVCAR-4 = tested on: OVCAR-4
UO-31 = tested on: UO-31
OVCAR-3 = tested on: OVCAR-3
RXF 393 = tested on: RXF 393
SF-539 = tested on: SF-539
CAKI-1 = tested on: CAKI-1
SF-268 = tested on: SF-268
MDA-MB-231 = tested on: MDA-MB-231
KM12 = tested on: KM12
NCI-H522 = tested on: NCI-H522
NCI-H23 = tested on: NCI-H23
MDA-N = tested on: MDA-N
RPMI-8226 = tested on: RPMI-8226
A498 = tested on: A498
SK-MEL-28 = tested on: SK-MEL-28
HCC 2998 = tested on: HCC 2998
IGROV-1 = tested on: IGROV-1
MDA-MB-435 = tested on: MDA-MB-435
SK-MEL-5 = tested on: SK-MEL-5
K562 = tested on: K562
M14 = tested on: M14
HCT-116 = tested on: HCT-116
HOP-18 = tested on: HOP-18
U-251 = tested on: U-251
TK-10 = tested on: TK-10
SK-OV-3 = tested on: SK-OV-3
UACC-62 = tested on: UACC-62
HL-60 = tested on: HL-60
ACHN = tested on: ACHN
SN12C = tested on: SN12C
RXF 631 = tested on: RXF 631
786-0 = tested on: 786-0
OVCAR-5 = tested on: OVCAR-5
SNB-75 = tested on: SNB-75
LXFL 529 = tested on: LXFL 529
SR = tested on: SR
NCI/ADR-RES = tested on: NCI/ADR-RES
HCT-15 = tested on: HCT-15
DLD-1 = tested on: DLD-1
SF-295 = tested on: SF-295
COLO 205 = tested on: COLO 205
MCF7 = tested on: MCF7
HT-29 = tested on: HT-29
A549 = tested on: A549
KM-20L2 = tested on: KM-20L2
BT-549 = tested on: BT-549
XF498 = tested on: XF498
LOX IMVI = tested on: LOX IMVI
SK-MEL-2 = tested on: SK-MEL-2
HOP-92 = tested on: HOP-92
UACC-257 = tested on: UACC-257
PC-3 = tested on: PC-3
Hs-578T = tested on: Hs-578T
SNB-19 = tested on: SNB-19
DMS-114 = tested on: DMS-114
CCRF-CEM = tested on: CCRF-CEM
EKVX = tested on: EKVX
MOLT-4 = tested on: MOLT-4
Malme-3M = tested on: Malme-3M
DMS-273 = tested on: DMS-273

COC(=O)c1sc(C(=O)OC)c2c1CSC2
GI50 (NCI-H226): > 70.6 µM (inactive)
GI50 (HOP-62): 47.6 µM (inactive)
GI50 (SNB-78): 49.3 µM (inactive)
GI50 (SW-620): > 100 µM (inactive)
GI50 (M19-MEL): > 100 µM (inactive)
GI50 (DU-145): > 100 µM (inactive)
GI50 (NCI-H460): > 100 µM (inactive)
GI50 (OVCAR-8): 79.6 µM (inactive)
GI50 (OVCAR-4): > 100 µM (inactive)
GI50 (UO-31): > 100 µM (inactive)
GI50 (OVCAR-3): > 100 µM (inactive)
GI50 (RXF 393): 47.5 µM (inactive)
GI50 (SF-539): 53.3 µM (inactive)
GI50 (CAKI-1): > 93.5 µM (inactive)
GI50 (SF-268): 54.1 µM (inactive)
GI50 (MDA-MB-231): > 100 µM (inactive)
GI50 (KM12): > 100 µM (inactive)
GI50 (NCI-H522): 76.2 µM (inactive)
GI50 (NCI-H23): > 72.1 µM (inactive)
GI50 (MDA-N): > 100 µM (inactive)
GI50 (RPMI-8226): > 100 µM (inactive)
GI50 (A498): > 91 µM (inactive)
GI50 (SK-MEL-28): > 100 µM (inactive)
GI50 (HCC 2998): > 100 µM (inactive)
GI50 (IGROV-1): > 100 µM (inactive)
GI50 (MDA-MB-435): > 100 µM (inactive)
GI50 (SK-MEL-5): > 100 µM (inactive)
GI50 (K562): > 100 µM (inactive)
GI50 (M14): > 100 µM (inactive)
GI50 (HCT-116): 97.9 µM (inactive)
GI50 (HOP-18): > 100 µM (inactive)
GI50 (U-251): 40.3 µM (inactive)
GI50 (TK-10): > 100 µM (inactive)
GI50 (SK-OV-3): > 100 µM (inactive)
GI50 (UACC-62): > 78.7 µM (inactive)
GI50 (HL-60): > 100 µM (inactive)
GI50 (ACHN): > 100 µM (inactive)
GI50 (SN12C): > 100 µM (inactive)
GI50 (RXF 631): > 100 µM (inactive)
GI50 (786-0): 53.6 µM (inactive)
GI50 (OVCAR-5): > 100 µM (inactive)
GI50 (SNB-75): 22.5 µM (inactive)
GI50 (LXFL 529): > 100 µM (inactive)
GI50 (SR): > 100 µM (inactive)
GI50 (NCI/ADR-RES): > 100 µM (inactive)
GI50 (HCT-15): > 91.2 µM
GI50 (DLD-1): > 100 µM (inactive)
GI50 (SF-295): 51.3 µM (inactive)
GI50 (COLO 205): > 100 µM (inactive)
GI50 (MCF7): > 100 µM (inactive)
GI50 (HT-29): > 100 µM (inactive)
GI50 (A549): > 100 µM (inactive)
GI50 (KM-20L2): > 100 µM (inactive)
GI50 (BT-549): > 100 µM (inactive)
GI50 (XF498): 34.7 µM (inactive)
GI50 (LOX IMVI): > 94.6 µM (inactive)
GI50 (SK-MEL-2): 55.8 µM (inactive)
GI50 (HOP-92): 32 µM (inactive)
GI50 (UACC-257): > 100 µM (inactive)
GI50 (PC-3): > 100 µM (inactive)
GI50 (Hs-578T): 97.9 µM (inactive)
GI50 (SNB-19): 51.8 µM (inactive)
GI50 (DMS-114): > 85.5 µM (inactive)
GI50 (CCRF-CEM): > 100 µM (inactive)
GI50 (EKVX): > 100 µM (inactive)
GI50 (MOLT-4): > 100 µM (inactive)
GI50 (Malme-3M): > 100 µM (inactive)
GI50 (DMS-273): > 100 µM (inactive)

CN1S(=O)(=O)N(C)P12(N=P(CP(=NP13(N(C)S(=O)(=O)N1C)N(C)S(=O)(=O)N3C)(c1ccccc1)c1ccccc1)(c1ccccc1)c1ccccc1)N(C)S(=O)(=O)N2C
GI50 (NCI-H226): > 100 µM (inactive)
GI50 (HOP-62): > 100 µM (inactive)
GI50 (SNB-78): > 100 µM (inactive)
GI50 (SW-620): > 100 µM (inactive)
GI50 (M19-MEL): > 100 µM (inactive)
GI50 (NCI-H460): > 100 µM (inactive)
GI50 (OVCAR-8): > 100 µM (inactive)
GI50 (UO-31): > 100 µM (inactive)
GI50 (OVCAR-3): > 100 µM (inactive)
GI50 (RXF 393): > 100 µM (inactive)
GI50 (SF-539): > 100 µM (inactive)
GI50 (CAKI-1): > 100 µM (inactive)
GI50 (SF-268): > 100 µM (inactive)
GI50 (KM12): > 100 µM (inactive)
GI50 (NCI-H522): > 100 µM (inactive)
GI50 (NCI-H23): > 100 µM (inactive)
GI50 (RPMI-8226): > 100 µM (inactive)
GI50 (A498): > 100 µM (inactive)
GI50 (SK-MEL-28): > 100 µM (inactive)
GI50 (HCC 2998): > 100 µM (inactive)
GI50 (IGROV-1): > 100 µM (inactive)
GI50 (SK-MEL-5): > 100 µM (inactive)
GI50 (K562): > 100 µM (inactive)
GI50 (M14): > 100 µM (inactive)
GI50 (HCT-116): > 100 µM (inactive)
GI50 (HOP-18): > 100 µM (inactive)
GI50 (U-251): > 100 µM (inactive)
GI50 (TK-10): > 100 µM (inactive)
GI50 (SK-OV-3): > 100 µM (inactive)
GI50 (UACC-62): > 100 µM (inactive)
GI50 (HL-60): > 100 µM (inactive)
GI50 (ACHN): > 100 µM (inactive)
GI50 (SN12C): > 100 µM (inactive)
GI50 (RXF 631): > 100 µM (inactive)
GI50 (786-0): > 100 µM (inactive)
GI50 (OVCAR-5): > 100 µM (inactive)
GI50 (SNB-75): > 100 µM (inactive)
GI50 (LXFL 529): > 100 µM (inactive)
GI50 (HCT-15): > 100 µM
GI50 (DLD-1): > 100 µM (inactive)
GI50 (COLO 205): > 100 µM (inactive)
GI50 (HT-29): > 100 µM (inactive)
GI50 (A549): > 100 µM (inactive)
GI50 (KM-20L2): > 100 µM (inactive)
GI50 (XF498): > 100 µM (inactive)
GI50 (LOX IMVI): > 100 µM (inactive)
GI50 (SK-MEL-2): > 100 µM (inactive)
GI50 (HOP-92): > 100 µM (inactive)
GI50 (UACC-257): > 100 µM (inactive)
GI50 (SNB-19): > 100 µM (inactive)
GI50 (DMS-114): > 100 µM (inactive)
GI50 (CCRF-CEM): > 100 µM (inactive)
GI50 (EKVX): > 100 µM (inactive)
GI50 (MOLT-4): > 100 µM (inactive)
GI50 (Malme-3M): > 100 µM (inactive)
GI50 (DMS-273): > 100 µM (inactive)

CO/N=C/c1cc(OC)c(OC)c(OC)c1
GI50 (NCI-H226): > 100 µM (inactive)
GI50 (HOP-62): > 100 µM (inactive)
GI50 (SNB-78): > 100 µM (inactive)
GI50 (SW-620): > 100 µM (inactive)
GI50 (M19-MEL): > 100 µM (inactive)
GI50 (NCI-H460): > 100 µM (inactive)
GI50 (OVCAR-8): > 100 µM (inactive)
GI50 (OVCAR-4): > 100 µM (inactive)
GI50 (UO-31): > 100 µM (inactive)
GI50 (OVCAR-3): > 100 µM (inactive)
GI50 (SF-539): > 100 µM (inactive)
GI50 (CAKI-1): > 100 µM (inactive)
GI50 (SF-268): > 100 µM (inactive)
GI50 (KM12): > 100 µM (inactive)
GI50 (NCI-H522): > 100 µM (inactive)
GI50 (NCI-H23): > 100 µM (inactive)
GI50 (RPMI-8226): > 100 µM (inactive)
GI50 (A498): > 100 µM (inactive)
GI50 (SK-MEL-28): > 100 µM (inactive)
GI50 (HCC 2998): > 100 µM (inactive)
GI50 (IGROV-1): > 100 µM (inactive)
GI50 (SK-MEL-5): > 100 µM (inactive)
GI50 (K562): > 100 µM (inactive)
GI50 (M14): > 100 µM (inactive)
GI50 (HCT-116): > 100 µM (inactive)
GI50 (HOP-18): > 100 µM (inactive)
GI50 (U-251): > 100 µM (inactive)
GI50 (TK-10): > 100 µM (inactive)
GI50 (SK-OV-3): > 100 µM (inactive)
GI50 (UACC-62): > 100 µM (inactive)
GI50 (HL-60): > 100 µM (inactive)
GI50 (ACHN): > 100 µM (inactive)
GI50 (SN12C): > 100 µM (inactive)
GI50 (RXF 631): > 100 µM (inactive)
GI50 (786-0): > 100 µM (inactive)
GI50 (OVCAR-5): > 100 µM (inactive)
GI50 (SNB-75): > 100 µM (inactive)
GI50 (LXFL 529): > 100 µM (inactive)
GI50 (SR): > 100 µM (inactive)
GI50 (HCT-15): > 100 µM
GI50 (DLD-1): > 100 µM (inactive)
GI50 (SF-295): > 100 µM (inactive)
GI50 (COLO 205): > 100 µM (inactive)
GI50 (HT-29): > 100 µM (inactive)
GI50 (A549): > 100 µM (inactive)
GI50 (KM-20L2): > 100 µM (inactive)
GI50 (XF498): > 100 µM (inactive)
GI50 (LOX IMVI): > 100 µM (inactive)
GI50 (SK-MEL-2): > 100 µM (inactive)
GI50 (HOP-92): > 100 µM (inactive)
GI50 (UACC-257): > 100 µM (inactive)
GI50 (SNB-19): > 100 µM (inactive)
GI50 (DMS-114): > 100 µM (inactive)
GI50 (CCRF-CEM): > 100 µM (inactive)
GI50 (EKVX): > 100 µM (inactive)
GI50 (MOLT-4): > 100 µM (inactive)
GI50 (Malme-3M): > 100 µM (inactive)
GI50 (DMS-273): > 100 µM (inactive)
